Results taken from patent publication US20240189330A1, “Compositions and Methods for Inhibiting and Treating Viral Infections” (The Regents of the University of California, priority 2021, published 2024).
“Also recorded” adds a separate entry of the source. Counter-ions that a name gives are not always drawn.

Columns and labels:
[1] = test system: Influenza A Virus, subtype H1N1; format: cell-based
[2] = test system: Human rhinovirus type 16 (HRV16); format: cell-based
human mammalian cells = conditions: cited from earlier work

Row | SMILES | H1N1 viral replication by qPCR [1] | HRV16 viral replication by qPCR [2] | concentration physiologically relevant, efficacious and non-cytotoxic (human mammalian cells)
1 | COC(=O)/C=C/C(=O)OC [DMF, dimethyl fumarate] | inhibit H1N1 replication; also recorded: inhibit the replication | minimally inhibit HRV16 replication; also recorded: little antiviral activity | –
2 | COC1=C(OC)C(=O)C(CCCCCCCCCC[P+](c2ccccc2)(c2ccccc2)c2ccccc2)=C(C)C1=O [Mito-MES, 10-(4,5-dimethoxy-2-methyl-3,6-dioxo-1,4-cyclohexadienyl) decyl triphenylphosphonium] | – | – | < 2000 nM
